Laboratory results reported in ChEMBL document CHEMBL1201862, “PubChem BioAssay data set” (2004).
Active and inactive are the calls of the source.

Assays:
cells [1] = assay type: functional, cell-based; settings: HEK-CNG
Galanin receptor type 3 = Galanin receptor type 3 (Homo sapiens, UniProt O60755); test: Fluorescence-based cell-based primary high throughput dose response assay to identify antagonists of the Galanin Receptor 3 (GalR3).; assay type: functional
[2] = P. falciparum Dd2 growth inhibitors, dose response, SYBR Green, cherry-picked samples (AID 1159567); assay type: functional, cell-based
[3] = toxicity to human HepG2 hepatoma cells – cell-based, plate reader, dry powder samples, cytotoxicity control, dose response (AID 1159569); assay type: functional;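 note: inhibitor potency with signal falling toward the positive control level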
[4] = Dd2 malaria parasite growth inhibition potency – SYBR Green, dry powder samples, dose response (AID 1159566); assay type: functional, cell-based;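 note: potency for growth inhibition with lower SYBR green DNA signal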
[5] = growth inhibition of yeast DHODH-expressing 3D7 parasites – SYBR Green, dry powder samples, dose response (AID 1159570); assay type: functional, cell-based;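 note: parasite growth measured after 72 hours of compound exposure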
[6] = growth inhibition of PfATP4-mutant resistant parasites – NITD609-resistant line, SYBR Green, dry powder, dose response (AID 1159571); assay type: functional, cell-based;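 note: parasites synchronized at ring stage by sorbitol before testing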
Beta-lactamase [7] = target: T1, Beta-lactamase (Pseudomonas aeruginosa, UniProt Q79MP6); test: […] counterscreen for selective VIM-2 inhibitors: dose response biochemical high throughput screening assay to identify inhibitors of IMP-1 metallo-beta-lactamase.
T1 sequence (Q79MP6 whole entry): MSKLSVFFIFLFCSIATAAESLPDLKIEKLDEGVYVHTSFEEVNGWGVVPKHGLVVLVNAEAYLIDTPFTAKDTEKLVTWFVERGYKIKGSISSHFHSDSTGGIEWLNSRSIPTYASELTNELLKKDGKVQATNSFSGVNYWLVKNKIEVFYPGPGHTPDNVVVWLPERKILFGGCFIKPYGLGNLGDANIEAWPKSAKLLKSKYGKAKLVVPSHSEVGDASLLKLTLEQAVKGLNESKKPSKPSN

Beta-lactamase [8] = target: Beta-lactamase (Salmonella choleraesuis (strain SC-B67), UniProt Q5J463); test: Epi-absorbance-based counterscreen for selective VIM-2 inhibitors: dose response biochemical high throughput screening assay to identify inhibitors of TEM-1 serine-beta-lactamase.
Sequence of Beta-lactamase (Salmonella choleraesuis (strain SC-B67), UniProt Q5J463) (Q5J463 whole entry): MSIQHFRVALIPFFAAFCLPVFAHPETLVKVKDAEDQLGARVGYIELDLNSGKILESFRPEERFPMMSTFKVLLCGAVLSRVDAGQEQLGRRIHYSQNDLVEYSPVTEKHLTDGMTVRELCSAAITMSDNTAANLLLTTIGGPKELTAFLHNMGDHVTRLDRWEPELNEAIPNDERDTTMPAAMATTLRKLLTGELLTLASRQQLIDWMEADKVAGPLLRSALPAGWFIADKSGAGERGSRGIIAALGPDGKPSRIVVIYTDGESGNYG

[9] = target: Protein-tyrosine kinase 2-beta (Homo sapiens, UniProt Q14289);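 note: potency of inhibitors of PYK2 kinase phosphorylation of poly-GT substrate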
Sequence of Protein-tyrosine kinase 2-beta (Q14289 whole entry): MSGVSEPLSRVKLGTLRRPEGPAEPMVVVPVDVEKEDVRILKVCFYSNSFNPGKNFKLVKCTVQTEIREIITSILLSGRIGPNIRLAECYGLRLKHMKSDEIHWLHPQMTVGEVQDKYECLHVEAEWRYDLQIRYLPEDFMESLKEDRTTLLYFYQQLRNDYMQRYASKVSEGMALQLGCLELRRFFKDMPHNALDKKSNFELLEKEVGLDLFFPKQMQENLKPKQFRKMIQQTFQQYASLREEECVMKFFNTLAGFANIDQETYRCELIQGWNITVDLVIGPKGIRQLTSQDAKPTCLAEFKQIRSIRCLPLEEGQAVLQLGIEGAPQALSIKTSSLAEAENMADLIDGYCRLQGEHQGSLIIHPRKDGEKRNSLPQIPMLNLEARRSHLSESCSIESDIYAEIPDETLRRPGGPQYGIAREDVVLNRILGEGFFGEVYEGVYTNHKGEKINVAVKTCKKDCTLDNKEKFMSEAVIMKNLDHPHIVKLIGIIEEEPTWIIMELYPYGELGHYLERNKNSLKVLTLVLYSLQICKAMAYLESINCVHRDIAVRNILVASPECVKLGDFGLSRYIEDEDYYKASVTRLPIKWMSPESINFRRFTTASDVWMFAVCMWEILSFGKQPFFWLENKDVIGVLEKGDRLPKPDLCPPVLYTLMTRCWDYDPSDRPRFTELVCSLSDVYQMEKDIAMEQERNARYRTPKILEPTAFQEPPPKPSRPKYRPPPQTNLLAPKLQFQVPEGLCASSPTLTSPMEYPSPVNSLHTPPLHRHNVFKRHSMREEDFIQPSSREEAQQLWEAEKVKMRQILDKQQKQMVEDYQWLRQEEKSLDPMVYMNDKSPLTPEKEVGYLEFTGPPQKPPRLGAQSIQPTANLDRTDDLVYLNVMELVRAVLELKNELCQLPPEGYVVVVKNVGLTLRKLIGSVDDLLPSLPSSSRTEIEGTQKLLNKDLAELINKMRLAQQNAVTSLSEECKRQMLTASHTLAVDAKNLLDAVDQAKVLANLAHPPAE

Beta-lactamase [10] = target: T1, Beta-lactamase; test: inhibition of IMP-1 beta-lactamase activity – biochemical, epi-absorbance, selectivity assay for VIM-2 inhibitor project, dose response (AID 1920)
[11] = HGIII-sPLA2 enzyme inhibition potency – biochemical, QFRET, IC50, dose response (AID 743457);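 note: green fluorescence rise as the enzyme cleaves BODIPY PC-A2 in liposomes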
[12] = target: T2, Sentrin-specific protease 1 (Homo sapiens, UniProt Q9P0U3); test: Dose response confirmation of small molecule inhibitors of the catalytic domain of the SUMO protease, SENP1 in a FRET assay.; assay type: functional; settings: read-out: IC50_Mean
T2 sequence (Q9P0U3 whole entry): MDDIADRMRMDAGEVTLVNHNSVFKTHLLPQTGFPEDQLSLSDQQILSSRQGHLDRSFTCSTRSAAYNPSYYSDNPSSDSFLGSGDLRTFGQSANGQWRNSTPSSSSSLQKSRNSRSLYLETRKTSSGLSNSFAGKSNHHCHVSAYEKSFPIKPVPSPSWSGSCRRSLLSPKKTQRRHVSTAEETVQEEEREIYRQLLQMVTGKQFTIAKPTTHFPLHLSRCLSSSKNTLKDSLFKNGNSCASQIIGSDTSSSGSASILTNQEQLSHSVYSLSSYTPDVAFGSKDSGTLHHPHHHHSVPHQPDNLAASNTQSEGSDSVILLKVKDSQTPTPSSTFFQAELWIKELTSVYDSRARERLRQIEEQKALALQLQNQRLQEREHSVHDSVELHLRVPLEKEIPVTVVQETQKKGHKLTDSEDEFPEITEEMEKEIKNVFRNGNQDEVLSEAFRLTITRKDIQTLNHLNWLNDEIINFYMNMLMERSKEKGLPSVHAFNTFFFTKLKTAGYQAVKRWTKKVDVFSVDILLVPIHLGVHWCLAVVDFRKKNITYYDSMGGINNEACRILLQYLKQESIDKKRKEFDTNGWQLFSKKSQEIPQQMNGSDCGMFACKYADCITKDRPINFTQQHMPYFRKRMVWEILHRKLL

[13] = target: T2, Sentrin-specific protease 1; test: SENP1 catalytic domain blockers, concentration series – biochemical, kinetic FRET, dose response (AID 651697); assay type: functional; settings: read-out: IC50_Mean
[14] = target: T3, Trace amine-associated receptor 1 (Homo sapiens, UniProt Q96RJ0); test: Fluorescence-based cell-based high throughput dose response assay to identify agonists of the human trace amine associated receptor 1 (TAAR1).; assay type: functional
T3 sequence (Q96RJ0 whole entry): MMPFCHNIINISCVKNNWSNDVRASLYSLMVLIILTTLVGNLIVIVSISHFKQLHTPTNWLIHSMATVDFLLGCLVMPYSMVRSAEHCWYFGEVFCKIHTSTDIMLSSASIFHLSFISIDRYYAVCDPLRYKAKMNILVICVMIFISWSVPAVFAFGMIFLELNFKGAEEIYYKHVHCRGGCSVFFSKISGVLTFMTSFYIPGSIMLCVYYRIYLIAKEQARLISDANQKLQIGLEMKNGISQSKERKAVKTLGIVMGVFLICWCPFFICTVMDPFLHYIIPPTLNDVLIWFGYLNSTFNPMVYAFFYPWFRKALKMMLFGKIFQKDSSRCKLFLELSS

cells [15] = assay type: functional, cell-based
cells [16] = assay type: functional, cell-based; remark: listed apart in the source
[17] = target: T3, Trace amine-associated receptor 1; test: Counterscreen for agonists of the human trace amine associated receptor 1 (hTAAR1): Fluorescence-based cell-based high throughput dose response assay to identify hTAAR1 agonist that also desensitize TAAR1 receptor response.; assay type: functional
[18] = target: COUP transcription factor 2 (Homo sapiens, UniProt P24468); test: Luminescence-based cell-based high throughput dose response assay to identify inhibitors of COUP-TFII (NR2F2).; assay type: functional;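 note: HEK293 cells transiently cotransfected with COUP-TFII expression vector and reporter; luciferase reporter luminescence driven by COUP-TFII from the pX2-168 reporter plasmid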
Sequence of COUP transcription factor 2 (P24468 whole entry): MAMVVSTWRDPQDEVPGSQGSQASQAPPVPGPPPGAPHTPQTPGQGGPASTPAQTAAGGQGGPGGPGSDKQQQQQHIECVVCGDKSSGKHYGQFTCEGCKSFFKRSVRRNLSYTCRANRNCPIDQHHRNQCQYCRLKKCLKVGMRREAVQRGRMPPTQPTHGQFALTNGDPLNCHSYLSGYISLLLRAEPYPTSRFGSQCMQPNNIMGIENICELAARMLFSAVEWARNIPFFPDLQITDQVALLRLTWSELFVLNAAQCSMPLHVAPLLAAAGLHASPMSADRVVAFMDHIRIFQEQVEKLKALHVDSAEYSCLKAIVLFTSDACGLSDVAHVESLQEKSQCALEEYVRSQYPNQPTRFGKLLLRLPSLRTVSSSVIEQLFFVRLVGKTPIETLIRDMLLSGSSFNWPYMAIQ

[19] = Luminescence Cell-Based Dose Response HTS to Identify Inhibitors of 5'UTR Stem-Loop Driven Prion Protein mRNA Translation in H4 Neuroglioblastoma Cells. [Related pubchem assays: 1827 (Project Summary), 1813 (Primary HTS)]; assay type: functional
[20] = target: Disintegrin and metalloproteinase domain-containing protein 17 (Homo sapiens, UniProt P78536); test: exosite inhibitors of ADAM17, dose response, biochemical (AID 743260)
Sequence of Disintegrin and metalloproteinase domain-containing protein 17 (P78536 whole entry, the tested form may be a part): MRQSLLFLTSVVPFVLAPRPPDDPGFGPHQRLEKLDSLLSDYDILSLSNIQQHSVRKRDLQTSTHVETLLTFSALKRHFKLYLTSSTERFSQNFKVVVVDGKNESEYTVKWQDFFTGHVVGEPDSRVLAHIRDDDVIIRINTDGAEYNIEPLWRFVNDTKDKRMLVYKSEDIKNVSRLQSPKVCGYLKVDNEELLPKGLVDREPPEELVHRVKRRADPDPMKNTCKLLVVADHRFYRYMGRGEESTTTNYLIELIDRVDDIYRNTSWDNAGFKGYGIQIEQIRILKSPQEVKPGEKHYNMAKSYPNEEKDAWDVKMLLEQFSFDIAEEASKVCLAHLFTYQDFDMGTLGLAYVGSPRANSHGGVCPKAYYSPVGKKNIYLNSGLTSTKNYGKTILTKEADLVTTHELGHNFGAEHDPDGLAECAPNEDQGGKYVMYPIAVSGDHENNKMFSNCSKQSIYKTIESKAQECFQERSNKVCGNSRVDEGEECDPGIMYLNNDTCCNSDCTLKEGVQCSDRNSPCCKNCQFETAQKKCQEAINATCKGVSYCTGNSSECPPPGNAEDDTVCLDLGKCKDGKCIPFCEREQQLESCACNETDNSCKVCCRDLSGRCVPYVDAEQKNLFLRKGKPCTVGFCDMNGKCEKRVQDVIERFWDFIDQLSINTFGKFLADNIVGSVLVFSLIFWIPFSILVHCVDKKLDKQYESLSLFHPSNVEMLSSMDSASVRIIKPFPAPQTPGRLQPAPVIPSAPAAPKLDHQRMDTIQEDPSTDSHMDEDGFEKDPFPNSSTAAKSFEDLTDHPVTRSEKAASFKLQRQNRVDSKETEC

[21] = alpha-synuclein stem-loop luciferase translation blockers – H4 neuroglioma cells, luminescence, confirmation (AID 1988); assay type: functional, cell-based
[22] = inhibition of ADAM10 peptide cleavage – biochemical, FRET peptide substrate, recombinant human ADAM10, selectivity assay for ADAM17 exosite inhibitor project, dose response (AID 743259);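 note: ADAM10 enzyme cleaving a FRET peptide substrate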
Cytochrome P450 2D6 = Cytochrome P450 2D6 (Homo sapiens, UniProt P10635);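 note: CYP2D6 member of a cytochrome P450 panel assay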
Sequence of Cytochrome P450 2D6 (P10635 whole entry): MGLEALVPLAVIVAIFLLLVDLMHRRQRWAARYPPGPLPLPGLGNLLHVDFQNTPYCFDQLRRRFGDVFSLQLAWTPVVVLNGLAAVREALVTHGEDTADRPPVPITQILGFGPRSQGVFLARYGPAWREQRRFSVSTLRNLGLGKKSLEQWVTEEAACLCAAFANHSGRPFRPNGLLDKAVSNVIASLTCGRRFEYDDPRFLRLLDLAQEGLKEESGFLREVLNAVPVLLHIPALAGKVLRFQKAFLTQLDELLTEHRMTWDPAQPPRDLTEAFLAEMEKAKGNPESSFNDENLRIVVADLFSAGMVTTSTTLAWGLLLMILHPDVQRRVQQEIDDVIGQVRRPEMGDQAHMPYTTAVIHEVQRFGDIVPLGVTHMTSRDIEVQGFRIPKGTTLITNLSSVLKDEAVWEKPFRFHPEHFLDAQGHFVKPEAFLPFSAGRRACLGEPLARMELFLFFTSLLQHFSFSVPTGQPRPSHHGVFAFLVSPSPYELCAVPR

[23] = luciferase reporter signal suppression in cells – H4 neuroglioma cells, luminescence, dose response (AID 1990); assay type: functional, cell-based

Sequence of Galanin receptor type 3 (O60755 whole entry): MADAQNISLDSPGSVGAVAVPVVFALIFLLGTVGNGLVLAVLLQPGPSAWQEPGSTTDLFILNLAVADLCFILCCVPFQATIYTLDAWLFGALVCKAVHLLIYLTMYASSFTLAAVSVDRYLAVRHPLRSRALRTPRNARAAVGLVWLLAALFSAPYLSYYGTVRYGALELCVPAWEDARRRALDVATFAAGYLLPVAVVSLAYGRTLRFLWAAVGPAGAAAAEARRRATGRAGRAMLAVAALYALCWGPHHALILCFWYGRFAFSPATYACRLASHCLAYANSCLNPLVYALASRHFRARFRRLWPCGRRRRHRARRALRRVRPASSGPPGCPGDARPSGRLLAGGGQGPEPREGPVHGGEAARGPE

For `CCCCC[C@@H](/C=C/C1C(=O)C=C[C@H]1C/C=C\CCCC(=O)O)OC(C)=O` (stereo partly drawn), the EC50 (cells [1]) was > 29.9 µM (inactive) and the IC50 (Galanin receptor type 3) was 1.09 µM (active).
In the case of `COc1cccc(CN(C)C[C@H]2OCc3ccccc3-c3c(n(C)c4ccccc34)C(=O)N([C@H](C)CO)C[C@@H]2C)c1`, the AC50 [2] is reported as 2.76 µM (active), the AC50 [3] is reported as 20.6 µM (active) and the AC50 [4] is reported as 2.87 µM (active). The AC50 [5] was 3.29 µM (active) and the AC50 [6] was 3.55 µM (active).
With `O=P(O)(O)c1ccccc1OCCCCCOc1ccccc1P(=O)(O)O` the IC50 (Beta-lactamase [7]) was > 59.6 µM (inactive), the IC50 (Beta-lactamase [8]) was > 59.6 µM (inactive) and the IC50 [9] was 2.23 µM (active). For the same molecule, the IC50 (Beta-lactamase [10]) was > 59.6 µM (inactive).
For `CC(C)Cc1c(C#N)c(S)nc2c1CCCC2`, the IC50 [11] was > 122 µM (inactive).
With `CCC(=NN=C(CC)c1ccccc1O)c1ccccc1O` the IC50 [12] was 10.4 µM (active) and the IC50 [13] was 8.19 µM (active).
In the case of `O=C(O)/C=C/C(=O)NCCc1ccccc1`, the EC50 [14] is reported as 0.153 µM (active), the IC50 (cells [15]) is reported as > 29.9 µM (inactive) and the EC50 (cells [16]) is reported as > 29.9 µM (inactive). For the same molecule, the IC50 [17] was 1.19 µM (active).
In the case of `CC1Cc2cc(-c3csc(NC(=O)Cc4ccccc4)n3)ccc2N1S(C)(=O)=O` (stereo not drawn), the IC50 [18] is reported as 6.11 µM (active).
For `CC(Oc1ccc(Cl)cc1)c1ccnn1S(=O)(=O)c1ccccc1` (stereo not drawn), the EC50 [19] was > 120 µM (not active), the IC50 [20] was > 69.5 µM (inactive) and the EC50 [21] was > 120 µM (not active). The IC50 [22] was 66.4 µM (inactive), the AC50 (Cytochrome P450 2D6) was 14.1 µM (inconclusive) and the EC50 [23] was 17.4 µM (active).
With `COc1ccccc1-c1n[nH]c(=S)n1Cc1ccco1` the IC50 (Beta-lactamase [7]) was > 59.6 µM (inactive), the IC50 (Beta-lactamase [8]) was > 59.6 µM (inactive) and the IC50 (Beta-lactamase [10]) was > 59.6 µM (inactive).
